Experimental findings from ChEMBL document CHEMBL1131586, “New antipsychotic agents with serotonin and dopamine antagonist properties based on a pyrrolo[2,1-b][1,3]benzothiazepine structure” (J Med Chem, 1998) are described below.

As a reminder, the Ki is the dissociation constant of the complex between target and ligand, obtained from inhibition or displacement. What is called IC50 is the point on the concentration scale where inhibition reaches its midpoint. High values mean a need for much substance, low ones inhibition by little substance.

The target in one experiment is D(3) dopamine receptor (Rattus norvegicus, UniProt P19020).
D(3) dopamine receptor, sequence (P19020 whole entry): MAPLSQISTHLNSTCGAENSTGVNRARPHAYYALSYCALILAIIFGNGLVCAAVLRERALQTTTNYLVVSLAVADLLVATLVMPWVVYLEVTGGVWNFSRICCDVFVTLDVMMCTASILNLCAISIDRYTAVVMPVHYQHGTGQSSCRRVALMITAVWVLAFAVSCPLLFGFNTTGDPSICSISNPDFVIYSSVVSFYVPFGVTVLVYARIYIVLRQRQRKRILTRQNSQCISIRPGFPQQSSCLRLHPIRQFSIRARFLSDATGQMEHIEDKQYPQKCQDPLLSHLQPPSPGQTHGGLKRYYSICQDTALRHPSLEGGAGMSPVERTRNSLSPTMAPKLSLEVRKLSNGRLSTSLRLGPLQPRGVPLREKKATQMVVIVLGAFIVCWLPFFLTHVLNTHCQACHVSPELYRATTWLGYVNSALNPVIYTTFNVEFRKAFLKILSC
Experiment [1] addresses Sodium-dependent dopamine transporter (Rattus norvegicus) (UniProt P23977). Description: Inhibition of dopamine uptake from dopamine uptake site.
The subject of experiment [2] is Rattus norvegicus. In words: Effect of compound on apomorphine induced locomotor hyperactivity (APO-induced LMA), […] at 30 umol/kg upon subcutaneous administration; LMA (locomotor activity). Format: functional.
In experiment [3] the test system is Rattus norvegicus. In words: Effect of compound on […], […] at 10 umol/kg upon subcutaneous administration; Catalepsy = 1/4. It is filed as functional.
The subject of experiment [4] is Rattus norvegicus. Description: Effect of compound on apomorphine induced locomotor hyperactivity (APO-induced LMA), […] at 1 umol/kg upon subcutaneous administration; LMA (locomotor activity). It is filed as functional.
Experiment [5] has as its system Rattus norvegicus. Description: Effect of compound on […], […] at 3 umol/kg upon subcutaneous administration; Catalepsy = 0/4. It is filed as functional.
Experiment [6] has as its system Rattus norvegicus. Description: Effect of compound on […], […] at 30 umol/kg upon subcutaneous administration; Catalepsy = 4/4. It is filed as functional.
The subject of experiment [7] is Rattus norvegicus. Description: Effect of compound on apomorphine induced locomotor hyperactivity (APO-induced LMA), […] at 10 umol/kg upon subcutaneous administration; LMA (locomotor activity). Format: functional.
The test system of experiment [8] is Rattus norvegicus. Description: Effect of compound on […], […] at 1 umol/kg upon subcutaneous administration; Catalepsy = 0/4. Format: functional.
Experiment [9] deals with Rattus norvegicus. In words: Effect of compound on apomorphine induced locomotor hyperactivity (APO-induced LMA), […] at 3 umol/kg upon subcutaneous administration; LMA (locomotor activity). Format: functional.
Experiment [10] concerns Rattus norvegicus. Description: Effect of compound on […], […] at 10 umol/kg upon subcutaneous administration; Catalepsy = 0/4. Format: functional.
For experiment [11], the system named is Rattus norvegicus. In words: Effect of compound on […], […] at 30 umol/kg upon subcutaneous administration; Catalepsy = 0/4. Format: functional.
Experiment [12] deals with T1, Serotonin 2 (5-HT2) receptor (Rattus norvegicus, UniProt P30994+P08909+P14842).
Description: Binding affinity which represents concentration giving half-maximal inhibition of [3H]ketanserin binding to 5-hydroxytryptamine 2 receptor rat tissue homogenate
Experiment [13] deals with T1, Serotonin 2 (5-HT2) receptor. The source holds these as a separate data set.
Description: pKi value for 5-hydroxytryptamine 2 receptor binding site

Sodium-dependent dopamine transporter (Rattus norvegicus), sequence (P23977 whole entry, looked up): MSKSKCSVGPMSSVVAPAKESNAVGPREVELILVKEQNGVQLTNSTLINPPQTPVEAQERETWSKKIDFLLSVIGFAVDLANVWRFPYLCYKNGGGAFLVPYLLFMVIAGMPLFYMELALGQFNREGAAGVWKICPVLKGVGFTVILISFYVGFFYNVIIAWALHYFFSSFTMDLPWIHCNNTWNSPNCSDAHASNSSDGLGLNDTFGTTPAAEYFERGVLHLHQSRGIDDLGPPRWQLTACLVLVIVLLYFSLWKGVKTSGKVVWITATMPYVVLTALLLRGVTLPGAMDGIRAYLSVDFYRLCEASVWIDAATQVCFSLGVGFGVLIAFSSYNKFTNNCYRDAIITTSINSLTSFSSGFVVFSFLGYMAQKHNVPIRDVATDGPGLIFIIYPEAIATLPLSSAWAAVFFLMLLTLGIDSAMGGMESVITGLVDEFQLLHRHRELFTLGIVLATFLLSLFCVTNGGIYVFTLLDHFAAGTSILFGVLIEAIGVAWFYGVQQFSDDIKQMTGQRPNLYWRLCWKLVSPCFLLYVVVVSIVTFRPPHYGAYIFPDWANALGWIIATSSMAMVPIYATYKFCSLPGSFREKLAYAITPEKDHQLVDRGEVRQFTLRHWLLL
Description for D(3) dopamine receptor: Binding affinity which represents concentration giving half-maximal inhibition of [3H]7-OH-DPAT binding to Dopamine receptor D3 in rat tissue homogenate

On to `CN1CCN(C2Cn3cccc3Sc3ccc(Cl)cc32)CC1` (racemic), for which the Ki on D(3) dopamine receptor stood at 4.1 nM. In experiment [1], this compound showed an IC50 of 6.5 µM.

As for `CN1CCN(C2Cn3cccc3Sc3ccc(Cl)cc32)CC1.Cl.Cl` (racemic), the LMA with Rattus norvegicus [2] is given as 39; in the experiment with Rattus norvegicus [4], 877; in the experiment with Rattus norvegicus [7], 43; in the experiment on Rattus norvegicus [9], 40. For the same compound, the Catalepsy is 1 in the experiment with Rattus norvegicus [3], 0 in the experiment on Rattus norvegicus [5], 4 with Rattus norvegicus [6] and 0 with Rattus norvegicus [8].

`Cc1cc2c(s1)Nc1ccccc1N=C2N1CCN(C)CC1` [OLANZAPINE]: the LMA in the experiment on Rattus norvegicus [2] is recorded as 4; in the experiment with Rattus norvegicus [4] it was 323; in the experiment on Rattus norvegicus [7], 47. Further, the Catalepsy in the experiment with Rattus norvegicus [10], with Rattus norvegicus [11] and in the experiment with Rattus norvegicus [8] was 0 in each case. This compound gave a Ki in [12] of 12 nM. Moreover, the “Log Ki” value in experiment [13] is listed as -7.9.
